# Experiment: Solubility in carbon disulfide
# Assay type: physicochemical
# Conditions: test tube
# Description: Carbon disulfide is a non-polar solvent which is commonly used as solvent for metal complexes.
# It is clear that all of the reactants reacted by this mechanochemical process. The mechanochemical reaction promotes a chemical change.
smiles,measurement,value
COc1cc(/C=C/C(=O)CC(=O)/C=C/c2ccc(O)c(OC)c2)ccc1O [Curcumin],solubility in carbon disulfide,completely soluble

# Reference: patent publication US20230339988A1, “Metal Complexes Of Macrocycles And/Or Isoprenoids And/Or Linear Tetrapyrroles By Mechanochemistry (Grinding Or Milling), Preparation Method Thereof, Sunscreen/Concealer/UV Absorber Thereof, Self-Assembled Coating Material Thereof, Superamphiphilic Material Or Surfaces Thereof, Hair Dyeing Thereof …” (priority 2019, published 2023)
